Experiment [1] has as its target T1, APEH (Mus musculus, UniProt Q8R146).
T1 sequence (Q8R146 1-732): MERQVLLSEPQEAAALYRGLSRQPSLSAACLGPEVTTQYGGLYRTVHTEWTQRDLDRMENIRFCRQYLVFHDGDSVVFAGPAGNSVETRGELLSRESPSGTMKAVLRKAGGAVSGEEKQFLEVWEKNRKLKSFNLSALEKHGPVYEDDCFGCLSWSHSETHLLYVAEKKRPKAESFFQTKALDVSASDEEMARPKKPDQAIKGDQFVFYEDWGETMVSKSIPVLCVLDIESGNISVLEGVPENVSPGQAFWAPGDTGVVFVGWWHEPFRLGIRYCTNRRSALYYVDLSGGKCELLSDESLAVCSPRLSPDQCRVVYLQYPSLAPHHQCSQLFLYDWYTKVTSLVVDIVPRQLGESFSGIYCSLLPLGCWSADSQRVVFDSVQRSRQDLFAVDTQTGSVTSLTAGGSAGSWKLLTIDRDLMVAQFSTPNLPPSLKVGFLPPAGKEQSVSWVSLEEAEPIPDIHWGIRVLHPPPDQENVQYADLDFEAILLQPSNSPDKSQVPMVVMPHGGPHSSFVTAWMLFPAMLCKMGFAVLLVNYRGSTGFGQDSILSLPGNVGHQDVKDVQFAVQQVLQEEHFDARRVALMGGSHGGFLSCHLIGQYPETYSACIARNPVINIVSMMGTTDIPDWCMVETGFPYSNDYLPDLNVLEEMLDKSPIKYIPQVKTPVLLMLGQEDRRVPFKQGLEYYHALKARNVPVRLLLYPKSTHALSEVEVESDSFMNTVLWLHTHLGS
In words: In vivo APEH inhibition, gel-based competitive ABPP of brain and heart. The note with it: i.p., 4 h; doses 0.2-1.6 mg/kg. The protocol: The potency and selectivity of 1,2,3-triazole ureas in vivo also was investigated. Mice were treated with the APEH inhibitor AA74-1 at various doses (0.2-1.6 mg/kg; PEG300 or 18:1:1 saline/ethanol/emulphor intraperitoneally) and sacrificed after 4 h. Brains and hearts were removed, homogenized, and analyzed by gel-based competitive ABPP. […] Finally, the possibility of extending ABPP-SILAC for the characterization of inhibitor selectivity in vivo was explored by taking advantage of recently described protocols for stable isotope labeling in mammals (SILAM). In this approach, brain tissues from vehicle- and AA74-1-treated mice were separately mixed with equivalent amounts of brain tissue from ‘heavy’ amino acid-fed mice, and the samples were then labeled with FP-biotin, enriched by avidin chromatography, analyzed by LC-MS, and SH activities quantified by measuring the ratio-of-ratios for observed peptide signals. […] The ratio-of-ratio signals for APEH indicated greater than 90% inhibition of this enzyme in AA74-1-treated animals (FIG. 5b, top), consistent with average spectral count values (14 and 1 spectral counts for APEH in vehicle-treated versus AA74-1-treated mice, respectively; FIG. 5b, bottom). […] ACHE, an enzyme that is targeted by other reported NHU inhibitors, was not inhibited by AA74-1 in either mouse brain (FIG. 5b) or transfected cell (FIG. 16) proteomes. […]

Experiment [2] deals with serine hydrolases (SHs) in mouse T-cell proteomes. Nature of the experiment: Gel-based competitive ABPP, mouse T-cell proteomes in vitro, SH reactivity profile. Type of experiment: biochemical. The settings on record: 100 nM, 30 minutes at 37° C.
In experiment [3] the target is T1, APEH. In words: In situ inhibition in cultured mouse T-cells, gel-based competitive ABPP. Type of experiment: cell-based. The note with it: 4 h at 37° C.; read-out: potency of APEH inactivation in cultured T-cells.
A further experiment has as its target T2, rat APEH (Rattus norvegicus, UniProt P13676).
T2 construct: endogenous in cells; host or cells: B103 rat neuroblastoma cells (soluble fraction)
In words: Competitive ABPP, soluble fraction of rat neuroblastoma (B103) cells. It counts as biochemical. The protocol:
The soluble fractions of human ovarian (SKOV3), melanoma (C8161), and breast (MDA-MB-231) cancer cells, as well as rat neuroblastoma (B103) cells were treated with 30 nM AA74-1 or DMSO for 30 minutes at 37° C., after which the samples were analyzed by competitive ABPP. Inhibited APEH is highlighted with boxes. Note that other SHs detected in human and mouse proteomes were not inhibited by AA74-1.

The target of experiment [4] is T1, APEH. Nature of the experiment: ABPP-SILAC in living mouse T-cells. The note with it: 3 nM inhibitor, 4 h.
Another experiment concerns the target T3, ABHD6 (Mus musculus, UniProt Q8R2Y0).
T3 sequence (Q8R2Y0 1-336): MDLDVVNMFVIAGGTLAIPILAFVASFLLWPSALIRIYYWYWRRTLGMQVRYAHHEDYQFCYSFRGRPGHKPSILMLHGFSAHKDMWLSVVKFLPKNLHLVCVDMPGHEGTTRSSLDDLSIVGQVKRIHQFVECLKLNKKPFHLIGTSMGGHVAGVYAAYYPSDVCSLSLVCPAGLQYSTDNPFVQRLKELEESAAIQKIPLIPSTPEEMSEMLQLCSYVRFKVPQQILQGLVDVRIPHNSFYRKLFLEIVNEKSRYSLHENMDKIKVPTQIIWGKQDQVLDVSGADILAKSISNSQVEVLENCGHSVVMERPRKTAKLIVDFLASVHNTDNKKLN
In words: ABPP-SILAC in Neuro2A cells. The settings on record: about 4 hours; 25 nM.

Several values for one entry are separate records, joined by “and”; a condition that tells them apart may be missing. Equal entries are not always repeated. Where only a bound is given, the exact number is not on record here.

Experimental findings from US9108930B2, “N1- and N2-carbamoyl-1,2,3-triazole serine hydrolase inhibitors and methods” (The Scripps Research Institute, priority 2011, dated 2015) are described below.

T2 sequence (P13676 whole entry): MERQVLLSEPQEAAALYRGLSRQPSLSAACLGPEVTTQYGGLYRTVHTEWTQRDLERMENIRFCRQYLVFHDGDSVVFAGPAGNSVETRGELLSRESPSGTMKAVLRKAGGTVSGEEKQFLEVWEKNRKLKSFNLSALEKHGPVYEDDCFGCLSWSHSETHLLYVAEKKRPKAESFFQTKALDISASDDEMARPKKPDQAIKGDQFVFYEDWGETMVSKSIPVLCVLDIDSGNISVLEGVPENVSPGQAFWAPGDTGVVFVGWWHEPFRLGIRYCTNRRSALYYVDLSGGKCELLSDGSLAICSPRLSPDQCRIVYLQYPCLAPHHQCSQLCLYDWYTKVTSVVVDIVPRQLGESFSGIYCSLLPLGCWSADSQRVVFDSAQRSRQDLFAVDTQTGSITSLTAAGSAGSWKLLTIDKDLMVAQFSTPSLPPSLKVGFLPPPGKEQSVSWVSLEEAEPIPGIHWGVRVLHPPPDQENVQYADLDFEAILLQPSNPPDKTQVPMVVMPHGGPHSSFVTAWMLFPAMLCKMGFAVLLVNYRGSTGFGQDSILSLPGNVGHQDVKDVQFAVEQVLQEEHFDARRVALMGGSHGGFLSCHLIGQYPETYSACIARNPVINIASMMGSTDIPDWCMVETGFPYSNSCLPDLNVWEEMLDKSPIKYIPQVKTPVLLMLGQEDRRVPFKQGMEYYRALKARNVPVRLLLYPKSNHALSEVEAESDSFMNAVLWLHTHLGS

For `CC(C)CC(O)(CC(C)C)c1cnn(C(=O)N2CCCC2)n1` [AA74-1], the “dose (as low as) giving complete inhibition of APEH in brain and heart” value at APEH [1] amounted to 0.4 mg/kg. Besides, the “cross-reactivity with other SHs” value in experiment [2] was “not interacting with other SHs”. For the same compound, the IC50 was 0.14 to 0.17 nM on APEH [3] and 7 nM on rat APEH. Further, the APEH activity blocked at APEH [4] was > 95% and > 97%.

In turn, `COc1ccc(-c2ccc(-c3cn(C(=O)N4CCCCC4c4ccccc4)nn3)cc2)cc1` (stereo not drawn) [KT195] yielded an ABHD6 activity blocked on ABHD6 greater than 90%.
